pIC50, pKi: −log10 of the molar value. Read-outs that look alike come from different tables or passages of the source. Square brackets hold non-standard residues; d marks the D form. Peptide text beside a SMILES is read from it. * marks the point of attachment. 5FAM = O=C1OC2(c3ccc(O)cc3Oc3cc(O)ccc32)c2ccc(C(=O)*)cc21; Nle = CCCC[C@H](N)C(=O)O; Cbz = O=C(OCc1ccccc1)*

Data on seven compounds can be found in paper PMC11411711 (ACS Nano, 2024).

For assay [1], the system named is TBI. The settings on record: large multicenter clinical trials in TBI; ref [4],[5]; cited from earlier work.
Assay [2] has as its system calpain. As to conditions: cited from earlier work; for pIC50: read-out: IC50, calpain inhibitor; for pKi: read-out: Ki for calpain.
The target of assay [3] is T1, recombinant human calpain-1 (Homo sapiens, UniProt P07384).
T1 sequence (P07384 1-714): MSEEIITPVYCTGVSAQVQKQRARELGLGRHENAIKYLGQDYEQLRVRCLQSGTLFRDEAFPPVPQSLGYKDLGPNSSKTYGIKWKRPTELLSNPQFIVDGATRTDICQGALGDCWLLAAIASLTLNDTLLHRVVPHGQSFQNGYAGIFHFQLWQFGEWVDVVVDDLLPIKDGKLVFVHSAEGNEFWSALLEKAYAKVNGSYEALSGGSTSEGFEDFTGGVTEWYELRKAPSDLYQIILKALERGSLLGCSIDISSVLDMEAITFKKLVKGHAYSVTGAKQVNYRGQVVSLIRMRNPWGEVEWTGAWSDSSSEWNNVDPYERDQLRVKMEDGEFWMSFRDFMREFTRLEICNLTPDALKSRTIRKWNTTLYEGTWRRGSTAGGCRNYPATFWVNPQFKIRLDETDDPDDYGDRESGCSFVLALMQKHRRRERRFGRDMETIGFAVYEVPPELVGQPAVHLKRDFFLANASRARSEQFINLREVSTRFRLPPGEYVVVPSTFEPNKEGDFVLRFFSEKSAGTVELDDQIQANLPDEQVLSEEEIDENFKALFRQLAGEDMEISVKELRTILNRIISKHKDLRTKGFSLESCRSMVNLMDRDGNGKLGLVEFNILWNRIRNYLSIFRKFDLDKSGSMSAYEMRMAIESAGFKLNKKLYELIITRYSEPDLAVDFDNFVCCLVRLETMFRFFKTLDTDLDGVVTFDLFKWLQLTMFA
T1 sequence (P04632 1-268 partner): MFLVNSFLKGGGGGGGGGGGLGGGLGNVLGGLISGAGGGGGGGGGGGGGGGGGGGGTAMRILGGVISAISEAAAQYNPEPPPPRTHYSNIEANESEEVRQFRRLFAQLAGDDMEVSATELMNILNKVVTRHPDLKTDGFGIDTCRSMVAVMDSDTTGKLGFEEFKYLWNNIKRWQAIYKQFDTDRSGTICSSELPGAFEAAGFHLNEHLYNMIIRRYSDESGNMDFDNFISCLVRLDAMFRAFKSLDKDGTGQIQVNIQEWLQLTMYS
Description: Inhibition of calpain-1 cleavage of CS FRET peptide by titrated CAST/ScrCAST. The class given is biochemical. The settings on record: up to 1 μM; 8 μM CS substrate; 26.6 nM recombinant human calpain-1; 37C.

The subject of assay [4] is calpain activity in the hippocampus. Description: Activated CS in hippocampal regions. As to conditions: dentate gyrus, CA1, CA2, CA3; 1 h after injury; n = 10 mice, unpaired t-test.
Assay [5] has as its system calpain. Briefly: Activated CS signal in injured cortex and hippocampus, CCI mouse model. As to conditions: mouse model of TBI, systemic administration.
Assay [6] addresses T1, recombinant human calpain-1. Description: CS activation of PEG conjugates by recombinant human calpain-1. Format: biochemical. The settings on record: 37C, 1 h.
Assay [7] concerns the target cathepsin L. The settings on record: read-out: Ki for cathepsin L; calpastatin peptide; ref [32]−[35]; cited from earlier work.
Assay [8] concerns the target calpain-2. As to conditions: read-out: Ki for calpain-2; calpain inhibitor II; ref [13],[24]; cited from earlier work.
Assay [9] concerns neuronal and hippocampal culture models of injury. As to conditions: ref [16]−[19]; cited from earlier work.
The target of assay [10] is cathepsin B. The settings on record: read-out: Ki for cathepsin B; calpain inhibitor II; ref [13],[24]; cited from earlier work.
Assay [11] concerns neurofilament and spectrin proteolysis in the cortex. As to conditions: continuous intra-arterial infusion after TBI; ref [13],[24]; cited from earlier work.
The target of assay [12] is calpain-1. The settings on record: read-out: Ki for calpain-1; calpain inhibitor II; ref [13],[24]; cited from earlier work.

As for `CC(=O)[C@H]1CC[C@H]2[C@@H]3CCC4=CC(=O)CC[C@]4(C)[C@H]3CC[C@]12C` [progesterone], in assay [1], the “efficacy as acute stage neuroprotective treatment” value is reported as “failed to establish efficacy as an acute stage neuroprotective treatment”.

As to `CC(C)[C@H](NC(=O)OCc1ccccc1)C(=O)N[C@H](C=O)Cc1ccccc1` [MDL-28170] (Cbz-Val-Phe-aldehyde), the pIC50 (as a rule, −log10 of the IC50, conventionally taken in molar units) in assay [2] (MDL-28170, ref [64]) is 7.96. For the same compound, the pKi (usually the negative decadic logarithm of the Ki, by convention in mol/L) in [2] (MDL-28170, ref [20],[28]) is 8.00.

Take “APRLEIVPTMYIYKLSPTGSEKLEDER-K(5FAM)-C-NH2 [ScrCAST]”: in [3], the “detectable inhibitory activity on calpain-1” value was “does not have any detectable inhibitory activity up to 1 μM”.

On to “CAST–PEG–CS: 40 kDa 8-arm PEG scaffold modified with CAST and CS peptide (activity-based nanotheranostic) (chain 1 DPMSSTYIEELGKREVTIPPKYRELLAKC; chain 2 QEVYGAMPKGC; not fully specified; 5FAM on the added lysine; C-terminal amide; cysteine joined to the 8-arm PEG by maleimide chemistry | QSY21 on the N-terminus; Cy5 on the lysine; PEG2 spacer between K(Cy5) and GC; c)”, for which the “sensor activation in hippocampal regions” value in assay [4] is given as “inhibits activation of CS in the injured hippocampus”. The “inhibition of calpain activity, cortical vs hippocampal neurons” value in [5] is “greater ABNT-mediated inhibition of calpain activity in cortical neurons compared to that in hippocampal neurons”. Further, the “inhibition of calpain-1 at increased enzyme concentration” value in assay [6] (calpain-1 up to 6U (∼380 nM), 8 μM CS) was “able to inhibit activity and cleavage of the CS substrate compared to ScrCAST–PEG–CS”. Besides, in assay [6] (conjugates matched to 8 μM CS, 26.6 nM recombinant human calpain-1, Cy5 fluorescence), the “CS activation by calpain-1” value is “no measured activation of CS peptide”.

As to `CC[C@H](C)[C@H](NC(=O)[C@H](Cc1ccc(O)cc1)NC(=O)[C@@H](NC(=O)[C@H](CO)NC(=O)[C@H](CO)NC(=O)[C@H](CCSC)NC(=O)[C@@H]1CCCN1C(=O)[C@@H](N)CC(=O)O)[C@@H](C)O)C(=O)N[C@@H](CCC(=O)O)C(=O)N[C@@H](CCC(=O)O)C(=O)N[C@@H](CC(C)C)C(=O)NCC(=O)N[C@@H](CCCCN)C(=O)N[C@@H](CCCNC(=N)N)C(=O)N[C@@H](CCC(=O)O)C(=O)N[C@H](C(=O)N[C@H](C(=O)N[C@H](C(=O)N1CCC[C@H]1C(=O)N1CCC[C@H]1C(=O)N[C@@H](CCCCN)C(=O)N[C@@H](Cc1ccc(O)cc1)C(=O)N[C@@H](CCCNC(=N)N)C(=O)N[C@@H](CCC(=O)O)C(=O)N[C@@H](CC(C)C)C(=O)N[C@@H](CC(C)C)C(=O)N[C@@H](C)C(=O)N[C@@H](CCCCNC(=O)c1ccc2c(c1)C(=O)OC21c2ccc(O)cc2Oc2cc(O)ccc21)C(=O)N[C@@H](CS)C(N)=O)[C@@H](C)CC)[C@@H](C)O)C(C)C` [CAST] (H-DPMSSTYIEELGKREVTIPPKYRELLAK(5FAM)C-NH2; N-terminus assumed), the negative-log Ki (pKi) in [7] is 5.22; in assay [2] (calpastatin peptide, ref [32]−[35]), 7.37.

As for `CSCC[C@@H](C=O)NC(=O)[C@H](CC(C)C)NC(=O)[C@H](CC(C)C)NC(C)=O` [calpain inhibitor II] (Ac-Leu-Leu-Met-aldehyde), the negative-log Ki (pKi) in assay [8] was 6.64; in assay [10], 7.00; in assay [12], 6.92. Besides, the “cell apoptosis, actin and spectrin proteolysis, DNA fragmentation” value in assay [9] was “reduce cell apoptosis, suppress actin and spectrin proteolysis, and inhibit DNA fragmentation”. Further, the “neurofilament and spectrin proteolysis in the cortex” value in assay [11] was “required continuous intra-arterial infusion after TBI to significantly reduce neurofilament and spectrin proteolysis in the cortex”.

Turning to `CCCC[C@@H](C=O)NC(=O)[C@H](CC(C)C)NC(=O)[C@H](CC(C)C)NC(C)=O` [calpain inhibitor I] (Ac-Leu-Leu-[Nle]-aldehyde), the pIC50 in assay [2] (calpain inhibitor I, ref [63]) was 7.05.
